Tests used:
[1] = test system: human endometrial cancer cell line MFE280 xenograft; experiment: Antitumor effect in MFE280 subcutaneous xenograft model in mice; type: in vivo; conditions: oral, once a day for 14 days, tumor volume last day
Description: Human endometrial cancer cell line MFE280 (DSMZ Number ACC-410), which had been cultured in an RPMI-1640 medium containing 10% FBS, and penicillin and streptomycin, were adjusted to a concentration of 4.7×10^7 cells/mL with Hanks' Balanced Salt Solution (GIBCO 1124020) to prepare a cell suspension, and the suspension was mixed with […] (BD Biosciences, Cat#354234) in a ratio of 1:1 to prepare a cell suspension in a concentration of 2.4×10^7 cells/ml. The cell suspension was inoculated in a volume of 100 μL into a subcutaneous part of a right flank of nude mice, 7 weeks of age (BALB/cAJcl-nu/nu, female, Clea Japan Inc.). Thirty five days after cell inoculation, the shortest diameter and the longest diameter of a tumor in each mouse were measured by using an electronic digital caliper (Digimatic™ caliper, Mitutoyo Corporation), so as to calculate the volume of the tumor in accordance with the following calculation formula: Tumor volume(mm^3)=Longest diameter(mm)×Shortest diameter(mm)×Shortest diameter(mm)/2
(§1) On the basis of the volumes of tumors obtained on the fast day of administration, the nude mice were grouped such that averages of the tumor volumes were substantially equal among the groups. Each test substance was dissolved in DMSO, Tween 80 was added thereto to prepare a solution in a 10-fold concentration and the thus prepared solution was stored at the freezer before use. Immediately before the administration, the stock solution was diluted with a 5% glucose solution to obtain a final administration solution (in which a ratio in % among DMSO, Tween 80 and the 5% glucose solution was 3.5:6.5:90). Each evaluation sample was orally administered to test substance administration group at a volume of 0.4 mL per 20 g of body weight once a day continuously for 14 days, and in a control group, an administration solvent was orally administered under the same conditions. Incidentally, the experiment was conducted on groups each consisting of 5 mice.
(§2) With respect to each of the control group and test substance administration group, a ratio of the weight measured on the final day to the weight measured on the first day (relative body weight: RBW) was calculated. If a ratio of the RBW of the test substance administration group/the RBW of the control group is 0.9 or more, the corresponding test substance administration group was defined as a well-tolerated. In the test substance administration group thus defined as well-tolerated, a ratio of the tumor volume of the test substance-dosing group to the tumor volume of the control group obtained on the last day (TIC) (%) was calculated, and shown in Table 28.

[2] = test system: human endometrial cancer cell line MFE296 xenograft; experiment: Antitumor effect in MFE296 subcutaneous xenograft model in mice; type: in vivo; conditions: oral, once a day for 14 days, tumor volume last day
Description: Human endometrial cancer cell line MFE296 (DSMZ Number ACC-419), which had been cultured in an RPMI-1640 medium containing 10% FBS, and penicillin and streptomycin, were adjusted to a concentration of 1×10^8 cells/mL with Hanks' Balanced Salt Solution (GIBCO #24020) to prepare a cell suspension, and the suspension was mixed with […] (BD Biosciences, Cat#354234) in a ratio of 1:1 to prepare a cell suspension in a concentration of 5×10^7 cells/ml. The suspension was inoculated in a volume of 100 μL into a subcutaneous part of a right flank of nude mice, 7 weeks of age (BALB/cAJcl-nu/nu, female, Clea Japan Inc.). Twelve days after cell inoculation, the shortest diameter and the longest diameter of a tumor in each mouse were measured by using an electronic digital caliper (Digimatic™ caliper, Mitutoyo Corporation), so as to calculate the volume of the tumor in accordance with the following calculation formula: Tumor volume(mm^3)=Longest diameter(mm)×Shortest diameter(mm)×Shortest diameter(mm)/2
as §1, with “first” for “fast”
as §2, with “27.” for “28.”

Compound: CNC(=O)n1ccc2cc(Oc3ccnc(NC(=O)c4ccc(C5CCN(CCO)CC5)cc4)c3)c(OCCOC)cc21 [Example 22, 5-((2-(4-(1-(2-Hydroxyethyl)piperidin-4-yl)benzamide)pyridin-4-yl)oxy)-6-(2-methoxyethoxy)-N-methyl-1H-indole-1-carboxamide]
- T/C (%) ([1]; 6.25 mg/kg): 72%
- T/C (%) ([1]; 12.5 mg/kg): 57%
- T/C (%) ([1]; 25 mg/kg): 31%
- T/C (%) ([1]; 50 mg/kg): 11%
- T/C (%) ([2]; 6.25 mg/kg): 91%
- T/C (%) ([2]; 12.5 mg/kg): 85%
- T/C (%) ([2]; 25 mg/kg): 60%
- T/C (%) ([2]; 50 mg/kg): 54%

— patent US8933099B2, “Monocyclic pyridine derivative” (Eisai R&D Management Co., Ltd., priority 2013, dated 2015)
